From patent US20050009809A1, “Acridine derivatives and their use as medicaments” (priority 2003, published 2005)
Values after ≈ are worked out from the molar mass of the structure shown. Read-outs that look alike come from different tables or passages of the source.

Columns and labels:
[1] = test system: human cervical carcinoma cell line KB/HeLa; assay: XTT proliferation assay, KB/HeLa; format: cell-based; details: for EC50: Homo sapiens, read-out: XTT proliferation assay, EC50, KB/Hela
Source text: (§1) The substances according to the invention were investigated for their antiproliferative activity in a proliferation test on established tumor cell lines. The test used determines the cellular dehydrogenase activity and makes possible a determination of the cell vitality and indirectly the cell count. The cell lines used are the human cervical carcinoma cell line KB/HeLa (ATCC CCL17), the ovarian adenocarcinoma cell line SKOV-3 (ATCC HTB77), the human glioblastoma cell line […] (NCI 503138) and the lung carcinoma cell line NCI-H460 (NCI 503473).
(§2) The adherently growing tumor cell lines KB/HeLa, SKOV-3, SF-268 and NCI-H460 were cultured under standard conditions in a fumigation incubator at 37° C., 5% CO2 and 95% atmospheric humidity. On experimental day 1, the cells are detached using trypsin/EDTA and pelleted by centrifugation. Subsequently, the cell pellet is resuspended in the respective culture medium at the corresponding cell count and reacted in a 96-well microtiter plate. The plates are then cultured overnight in the fumigation incubator. The test substances are prepared as 1 mg/ml stock solutions in DMSO and diluted to the appropriate concentrations on experimental day 2 using culture medium. The substances in culture medium are then added to the cells and incubated in the fumigation incubator for 45 h. As a control, cells which are not treated with test substance are used. For the XTT assay, 1 mg/ml of XTT (sodium 3′-[1-(phenylaminocarbonyl)-3,4-tetrazolium]-bis(4-methoxy-6-nitro)benzenesulfonic acid) is dissolved in RPMI-1640 medium without Phenol Red. Additionally, a 0.383 mg/ml PMS (N-methyldibenzopyrazine methylsulfate) solution in phosphate-buffered saline solution (PBS) is prepared. On experimental day 4, 75 μl/well of XTT-PMS mixture is pipetted onto the cell plates which in the meantime have been incubated with the test substances for 45 h. For this, shortly before use, the XTT solution is mixed with the PMS solution in the ratio 50:1 (vol:vol). The cell plates are then incubated in the fumigation incubator for a further 3 h and the optical density (OD490 nm) is determined in a photometer. By means of the OD490 nm determined, the percentage inhibition is calculated relative to the control and plotted semilogarithmically in the form of a concentration-action curve. The EC50 is calculated by means of a regression analysis from the concentration-action curve using the program Graphpad Prism.

[2] = test system: ovarian adenocarcinoma cell line SKOV-3; assay: XTT proliferation assay, SKOV-3; format: cell-based, human; details: for EC50: Homo sapiens, SK-OV-3, read-out: XTT proliferation assay, EC50, SKOV3
Source text: as §1, §2

[3] = test system: human glioblastoma cell line SF-268; assay: XTT proliferation assay, SF-268; format: cell-based; details: for EC50: Homo sapiens, read-out: XTT proliferation assay, EC50, SF-268
Source text: as §1, §2

[4] = test system: lung carcinoma cell line NCI-H460; assay: XTT proliferation assay, NCI-H460; format: cell-based, human; details: for EC50: Homo sapiens, read-out: XTT proliferation assay, EC50, NCI-H460
Source text: as §1, §2

[5] = Saturation solubility in water; details: for Water solubility compared to the comparison substances: versus comparison substances of WO0208194; for solubility: water, thermodynamic from solid
Description: The saturation solubility in water is determined as described below. For incipient dissolution of the substances and to improve wetting of the samples, at most 1% of DMSO is added. To check the content, an HPLC-UV method was used.

[6] = NCI-H460 cells, 45 h incubation

solubility [5] [µg/mL] | EC50 ([1]; KB/HeLa cells, 45 h incubation) [µg/mL] | EC50 ([2]; SKOV-3 cells, 45 h incubation) [µg/mL] | EC50 ([3]; SF-268 cells, 45 h incubation) [µg/mL] | EC50 [4, 6] [µg/mL] | Molecule | other results
83.9 (≈ 202 µM) | – | – | – | – | Cc1cccc(N2CCN(C(=O)c3c4ccccc4nc4cc(O)cc(O)c34)CC2)n1 [Compound 1, (1,3-Dihydroxyacridin-9-yl)-[4-(6-methylpyridin-2-yl)piperazin-1-yl]-methanone] | Water solubility compared to the comparison substances [5]: greatly improved water solubilities
1.07 (≈ 2.8 µM) | – | – | – | – | Cc1cccc(N2CCN(C(=O)c3c4ccccc4nc4ccccc34)CC2)n1 [Acridin-9-yl-[4-(6-methylpyridin-2-yl)piperazin-1-yl]methanone, reference compound] | –
– | 0.042 (≈ 0.065 µM) | 0.026 (≈ 0.0403 µM) | 0.047 (≈ 0.0728 µM) | 0.054 (≈ 0.0836 µM) | O=C(CCCCOC1C(O)C(O)OC(CO)C1O)Oc1cccc(N2CCN(C(=O)c3c4ccccc4nc4ccccc34)CC2)c1 (centres unmarked) [Compound 26, 3-[4-(Acridin-9-ylcarbonyl)piperazin-1-yl]phenyl 5-(2,3,5-trihydroxy-6-hydroxymethyltetrahydropyran-4-yloxy)pentanoate] | –
0.42 (≈ 1.06 µM) | – | – | – | – | COc1cccc(N2CCN(C(=O)c3c4ccccc4nc4ccccc34)CC2)c1 [Acridin-9-yl-[4-(3-methoxyphenyl)piperazin-1-yl]-methanone, reference compound] | –
215 | 0.019 | 0.014 | 0.029 | 0.035 | O=C(CCC(=O)OC1C(O)C(O)OC(CO)C1O)Oc1cccc(N2CCN(C(=O)c3c4ccccc4nc4ccccc34)CC2)c1 (centres unmarked) [Compound 25, 3-[4-(Acridin-9-ylcarbonyl)piperazin-1-yl]phenyl 2,3,5-trihydroxy-6-hydroxymethyltetrahydropyran-4-yl succinate] | Water solubility compared to the comparison substances [5]: greatly improved water solubilities

More lines, now with the values behind:

Molecule | solubility [5] [µg/mL] | EC50 ([1]; KB/HeLa cells, 45 h incubation) [µg/mL] | EC50 ([2]; SKOV-3 cells, 45 h incubation) [µg/mL] | EC50 ([3]; SF-268 cells, 45 h incubation) [µg/mL] | EC50 [4, 6] [µg/mL] | other results
O=C(c1c2ccccc2nc2ccccc12)N1CCN(c2cccc(OP(=O)(O)Oc3cccc(N4CCN(C(=O)c5c6ccccc6nc6ccccc56)CC4)c3)c2)CC1 [Compound 11, bis-{3-[4-(Acridin-9-ylcarbonyl)piperazin-1-yl]phenyl}phosphate] | – | – | – | – | – | XTT proliferation assay, EC50, KB/Hela ([1]; KB/HeLa cells, 45 h incubation): 0.132 µg/mL; XTT proliferation assay, EC50, SKOV3 ([2]; SKOV-3 cells, 45 h incubation): 0.133 µg/mL; XTT proliferation assay, EC50, SF-268 ([3]; SF-268 cells, 45 h incubation): 0.127 µg/mL; XTT proliferation assay, EC50, NCI-H460 [4, 6]: 0.293 µg/mL
Mono-{3-[4-(acridin-9-ylcarbonyl)piperazin-1-yl]phenyl}glutarate [Compound 22] | – | – | – | – | – | XTT proliferation assay, EC50, KB/Hela ([1]; KB/HeLa cells, 45 h incubation): 0.01 µg/mL; XTT proliferation assay, EC50, SKOV3 ([2]; SKOV-3 cells, 45 h incubation): 0.007 µg/mL; XTT proliferation assay, EC50, SF-268 ([3]; SF-268 cells, 45 h incubation): 0.019 µg/mL; XTT proliferation assay, EC50, NCI-H460 [4, 6]: 0.016 µg/mL
O=C(c1c2ccccc2nc2ccccc12)N1CCN(c2cccc(O)c2)CC1 [Acridin-9-yl-[4-(3-hydroxyphenyl)piperazin-1-yl]methanone, reference compound] | 0.03 (≈ 0.0782 µM) | – | – | – | – | –
O=C(Oc1cccc(N2CCN(C(=O)c3c4ccccc4nc4ccccc34)CC2)c1)Oc1cccc(N2CCN(C(=O)c3c4ccccc4nc4ccccc34)CC2)c1 [Compound 19, bis-{3-[4-(Acridin-9-ylcarbonyl)piperazin-1-yl]phenyl}carbonate] | – | 0.02 (≈ 0.0252 µM) | 0.013 (≈ 0.0164 µM) | 0.025 (≈ 0.0315 µM) | 0.026 (≈ 0.0328 µM) | –
O=C(NCCN1CCOCC1)Oc1cccc(N2CCN(C(=O)c3c4ccccc4nc4ccccc34)CC2)c1 [Compound 29, 3-[4-(Acridin-9-ylcarbonyl)piperazin-1-yl]phenyl (2-morpholin-4-yl-ethyl)carbamate] | 41 (≈ 76 µM) | 0.036 (≈ 0.0667 µM) | 0.017 (≈ 0.0315 µM) | 0.024 (≈ 0.0445 µM) | 0.027 (≈ 0.05 µM) | Water solubility compared to the comparison substances [5]: greatly improved water solubilities
CC1(C)OCC(C2OC3OC(C)(C)OC3C2OCCCCC(=O)Oc2cccc(N3CCN(C(=O)c4c5ccccc5nc5ccccc45)CC3)c2)O1 (centres unmarked) [Compound 24, 3-[4-(Acridin-9-ylcarbonyl)piperazin-1-yl]phenyl 5-[5-(2,2-dimethyl-[1,3]-dioxolan-4-yl)-2,2-dimethyltetrahydrofuro[2,3-d][1,3]dioxol-6-yloxy]-pentanoate] | – | 0.04 (≈ 0.0551 µM) | 0.023 (≈ 0.0317 µM) | 0.048 (≈ 0.0661 µM) | 0.072 (≈ 0.0992 µM) | –
O=C(CCC(=O)N(CCO)CCO)Oc1cccc(N2CCN(C(=O)c3c4ccccc4nc4ccccc34)CC2)c1 [Compound 20, 3-[4-(Acridin-9-ylcarbonyl)piperazin-1-yl]phenyl N,N-bis-(2-hydroxy-ethyl)succinate] | – | – | – | – | – | XTT proliferation assay, EC50, KB/Hela ([1]; KB/HeLa cells, 45 h incubation): 0.023 µg/mL; XTT proliferation assay, EC50, SKOV3 ([2]; SKOV-3 cells, 45 h incubation): 0.014 µg/mL; XTT proliferation assay, EC50, SF-268 ([3]; SF-268 cells, 45 h incubation): 0.021 µg/mL; XTT proliferation assay, EC50, NCI-H460 [4, 6]: 0.027 µg/mL; Absolute solubility in water ([5]; saturation solubility, at most 1% DMSO, HPLC-UV): 143.5 µg/mL; Water solubility compared to the comparison substances [5]: greatly improved water solubilities
O=C(NCCCl)Oc1cccc(N2CCN(C(=O)c3c4ccccc4nc4ccccc34)CC2)c1 [Compound 30, 3-[4-(Acridin-9-ylcarbonyl)piperazin-1-yl]phenyl (2-chloroethyl)carbamate] | – | 0.029 (≈ 0.0593 µM) | 0.019 (≈ 0.0389 µM) | 0.026 (≈ 0.0532 µM) | 0.025 (≈ 0.0511 µM) | –
CC1(C)OCC(C2OC3OC(C)(C)OC3C2OC(=O)CCC(=O)Oc2cccc(N3CCN(C(=O)c4c5ccccc5nc5ccccc45)CC3)c2)O1 (centres unmarked) [Compound 23, 3-[4-(Acridin-9-ylcarbonyl)piperazin-1-y;]phenyl 5-(2,2-dimethyl-[1,3]dioxolan-4-yl)-2,2-dimethyltetrahydrofuro[2,3-d][1,3]dioxol-6-yl succinate] | – | – | – | – | – | XTT proliferation assay, EC50, KB/Hela ([1]; KB/HeLa cells, 45 h incubation): 0.045 µg/mL; XTT proliferation assay, EC50, SKOV3 ([2]; SKOV-3 cells, 45 h incubation): 0.023 µg/mL; XTT proliferation assay, EC50, SF-268 ([3]; SF-268 cells, 45 h incubation): 0.058 µg/mL; XTT proliferation assay, EC50, NCI-H460 [4, 6]: 0.055 µg/mL
CC(C)NC(=O)Oc1cccc(N2CCN(C(=O)c3c4ccccc4nc4ccccc34)CC2)c1 [Compound 2, 3-[4-(Acridin-9-ylcarbonyl)piperazin-1-yl]phenyl isopropylcarbamate] | – | 0.051 (≈ 0.109 µM) | 0.039 (≈ 0.0832 µM) | 0.061 (≈ 0.13 µM) | 0.062 (≈ 0.132 µM) | –
CN1CCN(C(=O)CCC(=O)Oc2cccc(N3CCN(C(=O)c4c5ccccc5nc5ccccc45)CC3)c2)CC1 [Compound 21, 3-[4-(Acridin-9-ylcarbonyl)piperazin-1-yl]phenyl 4-(4-methylpiperazin-1-yl)-4-oxobutyrate] | 115 (≈ 203 µM) | 0.024 (≈ 0.0424 µM) | 0.018 (≈ 0.0318 µM) | 0.027 (≈ 0.0477 µM) | 0.025 (≈ 0.0442 µM) | Water solubility compared to the comparison substances [5]: greatly improved water solubilities
O=C(c1c2ccccc2nc2ccccc12)N1CCN(c2cccc(OP(=O)(O)O)c2)CC1 [Compound 4, Mono-{3-[4-(acridin-9-ylcarbonyl)piperazin-1-yl]phenyl}phosphate] | – | – | – | – | – | XTT proliferation assay, EC50, KB/Hela [1]: 0.018 µg/mL; XTT proliferation assay, EC50, SKOV3 [2]: 0.208 µg/mL; XTT proliferation assay, EC50, SF-268 [3]: 0.140 µg/mL; XTT proliferation assay, EC50, NCI-H460 [4]: 0.272 µg/mL
